US8193252B1, “Mesoprogestins (progesterone receptor modulators) for the treatment and prevention of benign hormone dependent gynecological disorders” (Bayer Pharma AG, priority 1999, dated 2012)
Each block holds one molecule with its values, some of them ahead of it.

Legend:
[1] = tested on: pregnant rats; assay: Abortifacient activity in pregnant rats; type: in vivo, rat; conditions: s.c.; treatment days 5-7 of pregnancy, autopsy day 9; * SAS, probit procedure
Source text: (§1) The guinea pig is considered as relevant model of human gestation and parturition (Elger W, Fähnrich M, Beier S, Quing S S, Chwalisz K (1987). Endometrial and myometrial effects of progesterone antagonists in pregnant guinea pigs. Am J Obstet Gynecol 157: 1065-1074; Elger W, Neef G, Beier S, Fähnrich M, Gründel M, Heermann J, Malmendier A, Laurent D, Puri C P, Singh M M, Hasan S H, Becker H (1992). Evaluation of antifertility activities of antigestagens in animal model. In: Puri C P and Van Look P F A (eds), Current Concepts in Fertility Regulation and Reproduction. Wiley Eastern Limited, New Delhi, pp. 303-328; Elger W, Faehnrich M, Beier S, Qing S S, Chwalisz K (1986). Mechanism of action of progesterone antagonists in pregnant guinea pigs. Contraception 6: 47-62; Elger W, Chwalisz K, Faehnrich M, Hasan S H, Laurent D, Beier S, Ottow E, Neef G, Garfield R E (1990). Studies on labor-conditioning and labor-inducing effects of antiprogesterones in animal model. In: Garfield R E (eds), Norwell, pp. 153-175.) The mechanism of abortion of antiprogestins in this species is the initiation of labor and finally the expulsion of the conceptus. Abortifacient effects in the rat during very early pregnancy reflect inhibitory effects on nidation rather than initiation of uterine contractions. Studies in the rat model lead to “overestimation” of the potential of antiprogestins to terminate pregnancy in humans. Conversely, in the guinea pig model, irrespective of the antiprogestin doses, there were high rates of ongoing pregnancies similar to the situation in humans (Elger et al., Current Concepts in Fertility Regulation and Reproduction cited above). Furthermore, in both humans and guinea pigs, there is a strong synergism between antiprogestins and prostaglandins with respect the induction of labor (see the articles cited above and Elger W, Beier S (1983). Prostaglandine and Antigestagene für den Schwangerschaftsabbruch (Prostaglandins and antigestagens for pregnancy termination). German Patent DE 3337450 12; Van Look P, Bygdeman M (1989). Antiprogestational steroids: a new dimension in human fertility regulation. Oxford reviews of reproductive medicine 11: 2-60).

[2] = molecular target: T1, GR (Homo sapiens, UniProt P04150); assay: Relative binding activity (RBA) at GR, dexamethasone = 100%; conditions: by Kaufmann
T1 sequence (P04150 1-777): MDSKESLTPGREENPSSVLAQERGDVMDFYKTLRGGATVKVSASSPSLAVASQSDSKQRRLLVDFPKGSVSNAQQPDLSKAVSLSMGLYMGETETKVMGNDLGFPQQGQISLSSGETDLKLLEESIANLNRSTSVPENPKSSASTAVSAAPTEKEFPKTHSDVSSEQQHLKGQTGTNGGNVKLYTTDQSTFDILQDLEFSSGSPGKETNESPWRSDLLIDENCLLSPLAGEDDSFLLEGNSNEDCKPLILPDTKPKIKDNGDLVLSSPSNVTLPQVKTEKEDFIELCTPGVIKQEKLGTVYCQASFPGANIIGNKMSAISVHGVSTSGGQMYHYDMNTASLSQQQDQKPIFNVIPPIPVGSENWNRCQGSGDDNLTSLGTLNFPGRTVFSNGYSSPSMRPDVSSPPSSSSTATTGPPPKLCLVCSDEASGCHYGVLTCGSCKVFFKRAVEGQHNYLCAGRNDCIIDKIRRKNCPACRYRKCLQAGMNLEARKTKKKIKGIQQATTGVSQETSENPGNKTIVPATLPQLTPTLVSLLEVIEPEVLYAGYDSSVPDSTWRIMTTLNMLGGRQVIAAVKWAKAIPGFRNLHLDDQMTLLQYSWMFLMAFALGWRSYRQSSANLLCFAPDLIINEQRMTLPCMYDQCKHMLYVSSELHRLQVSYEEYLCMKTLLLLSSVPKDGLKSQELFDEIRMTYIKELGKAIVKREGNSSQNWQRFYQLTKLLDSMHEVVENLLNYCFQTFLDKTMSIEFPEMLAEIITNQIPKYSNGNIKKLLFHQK

[3] = molecular target: T2, PR (progesterone receptor) (Homo sapiens, UniProt P06401); assay: Relative binding activity (RBA) at PR, progesterone = 100%; conditions: by Kaufmann
T2 sequence (P06401 1-933): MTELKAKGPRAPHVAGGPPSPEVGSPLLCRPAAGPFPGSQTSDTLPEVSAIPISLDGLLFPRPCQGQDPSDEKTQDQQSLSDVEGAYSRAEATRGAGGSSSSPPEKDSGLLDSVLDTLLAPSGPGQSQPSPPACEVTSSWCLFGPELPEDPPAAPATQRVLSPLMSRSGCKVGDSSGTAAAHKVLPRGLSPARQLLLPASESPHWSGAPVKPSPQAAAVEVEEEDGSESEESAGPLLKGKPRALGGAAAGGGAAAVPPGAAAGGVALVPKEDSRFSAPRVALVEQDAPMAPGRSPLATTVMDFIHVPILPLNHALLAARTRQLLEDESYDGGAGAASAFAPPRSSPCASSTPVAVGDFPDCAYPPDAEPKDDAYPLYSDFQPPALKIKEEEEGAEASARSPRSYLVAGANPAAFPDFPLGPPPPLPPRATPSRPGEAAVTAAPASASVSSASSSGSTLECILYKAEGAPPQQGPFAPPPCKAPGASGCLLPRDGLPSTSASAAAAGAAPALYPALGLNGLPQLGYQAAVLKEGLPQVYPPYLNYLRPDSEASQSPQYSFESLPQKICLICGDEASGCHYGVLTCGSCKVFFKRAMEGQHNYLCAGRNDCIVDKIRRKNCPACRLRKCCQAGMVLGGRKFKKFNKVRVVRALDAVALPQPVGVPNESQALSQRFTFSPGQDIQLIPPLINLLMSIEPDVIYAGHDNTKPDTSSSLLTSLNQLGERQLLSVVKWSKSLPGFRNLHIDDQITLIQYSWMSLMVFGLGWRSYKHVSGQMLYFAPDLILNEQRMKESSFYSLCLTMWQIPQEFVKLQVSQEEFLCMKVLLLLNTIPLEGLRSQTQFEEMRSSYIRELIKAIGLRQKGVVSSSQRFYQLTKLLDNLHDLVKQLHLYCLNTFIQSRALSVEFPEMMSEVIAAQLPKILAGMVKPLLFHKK

[4] = tested on: pregnant guinea pigs; assay: Abortifacient / labor inducing activity in pregnant guinea pigs; type: in vivo, guinea pig; conditions: for abortifacient activity ED50, guinea pig: s.c., treatment day 43-44 of pregnancy, autopsy day 50; for ranking of abortifacient activity: treated on days 43 and 44 of pregnancy, observed until day 50
Description: In the guinea pig model which allows a good prediction of the effects in humans with respect to the abortifacient activity (Elger W, Beier S., Chwalisz K, Fähnrich M, Hasan S H, Henderson D, Neef G, Rohde R (1986): Studies on the mechanism of action of progesterone antagonists. J Steroid Biochem 25: 835-845) the mesoprogestins J 867, J 912, J 956, J 1042 lead up to 100 mg/kg/day to a maximal abortion rate of 20%.
as §1
Pregnant guinea pigs were treated on days 43 and 44 of pregnancy and observed until day 50 of gestation. For the effects of various treatments see table 1 and FIG. 2. It is typical for this model that expulsions occur with a delay of several days after treatment. It can be seen that Mesoprogestins have a much reduced abortifacient activity compared to RU486. […] The differences with respect to abortifacient activity seem qualitative ones. It is not possible to overcome the low abortifacient activity of a Mesoprogestin by the use of a higher dose.
FIG. 2 is graphs showing data on the assessment on cumulative rate of abortion until day 50 in guinea pigs treated on days 43 and 44 of pregnancy.

[5] = tested on: menorrhagia; conditions: women with ovulatory menorrhagia, acute administration during bleeding; cited from earlier work
[6] = molecular target: T3, progesterone receptor (PR) (Oryctolagus cuniculus, UniProt P06186); assay: McPhail test, PR antagonistic (antiprogestagenic) activity in estradiol-primed juvenile rabbits in the presence of progesterone; type: in vivo; conditions: 4 days s.c., in the presence of progesterone 1 mg/rabbit s.c.
T3 construct: effects of PR-modulators in the uterus of estrogen primed immature rabbits (McPhail test); from tissue; host or cells: uterus (endometrium) of estradiol-primed juvenile rabbits, in vivo
T3 sequence (P06186 1-930): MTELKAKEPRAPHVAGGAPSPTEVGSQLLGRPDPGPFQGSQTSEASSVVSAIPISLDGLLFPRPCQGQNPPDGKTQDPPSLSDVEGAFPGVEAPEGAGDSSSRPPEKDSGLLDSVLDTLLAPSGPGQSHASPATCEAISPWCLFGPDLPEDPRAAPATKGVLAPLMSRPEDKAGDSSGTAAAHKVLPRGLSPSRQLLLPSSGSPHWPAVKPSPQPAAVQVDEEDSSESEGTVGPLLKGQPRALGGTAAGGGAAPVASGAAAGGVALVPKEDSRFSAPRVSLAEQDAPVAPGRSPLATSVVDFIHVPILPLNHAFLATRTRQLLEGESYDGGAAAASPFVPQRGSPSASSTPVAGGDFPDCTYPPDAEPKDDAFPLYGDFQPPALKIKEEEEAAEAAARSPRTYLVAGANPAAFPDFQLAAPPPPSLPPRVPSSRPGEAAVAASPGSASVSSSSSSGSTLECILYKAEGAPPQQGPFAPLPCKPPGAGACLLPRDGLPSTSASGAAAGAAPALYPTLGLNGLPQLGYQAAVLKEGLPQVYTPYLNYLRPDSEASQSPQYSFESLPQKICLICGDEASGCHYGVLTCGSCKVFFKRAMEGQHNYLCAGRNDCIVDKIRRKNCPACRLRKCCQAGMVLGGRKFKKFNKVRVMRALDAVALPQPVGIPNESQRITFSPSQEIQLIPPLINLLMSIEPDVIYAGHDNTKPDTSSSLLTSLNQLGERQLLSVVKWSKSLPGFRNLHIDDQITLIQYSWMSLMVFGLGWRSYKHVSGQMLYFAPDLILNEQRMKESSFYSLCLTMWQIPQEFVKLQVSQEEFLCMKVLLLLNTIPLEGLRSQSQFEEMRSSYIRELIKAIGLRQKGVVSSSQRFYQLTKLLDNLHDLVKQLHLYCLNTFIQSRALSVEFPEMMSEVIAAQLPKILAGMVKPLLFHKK
Description: The capacity of mesoprogestins to antagonize progesterone function is also tested in the McPhail test using a progesterone dose which induces a McPhail score ranging between 3 and 4.
(§2) The PR antagonistic and agonistic properties of mesoprogestins were assessed in estrogen-primed rabbits in the McPhail test according to Selye (Textbook of Endocrinology, 1947, pp. 345-346).

[7] = molecular target: T3, progesterone receptor (PR); assay: McPhail test, PR agonistic (progestagenic) activity in estradiol-primed juvenile rabbits; type: in vivo, rabbit; conditions: 4 days s.c. treatment, absence of progesterone
Description: In the classical bioassay, the McPhail test, assessing progestagenic and antiprogestagenic effects in rabbits (Selye H., Textbook of Endocrinology, 1947, pp. 345-346), progesterone produces a maximum McPhail score of 4 (by definition).
as §2

[8] = tested on: cyclic guinea pigs; conditions: cited from earlier work
[9] = as described in DE 43 32 283 / DE 43 32 284; cited from earlier work
[10] = as described in DE 43 32 283 / DE 43 32 284; cited from earlier work; remark: listed apart in the source
[11] = tested on: endometriosis; conditions: women treated with danazol; cited from earlier work

RBA (%) GR [2]: 16%
RBA (%) PR [3]: 162%
Structure (SMILES): COCC1(O)CCC2C3CCC4=CC(=O)CCC4=C3C(c3ccc(C=NO)cc3)CC21C (stereo not drawn) [J912, 4-[17β-Hydroxy-17α-(methoxymethyl)-3-oxoestra-4,9-dien-11β-yl]benzaldehyd-(1E)-oxim]
abortifacient activity ED50, rat [1]: 0.36 mg/animal/day
abortifacient activity ED50, guinea pig [4]: >100 mg/animal/day
ranking of abortifacient activity [4]: RU486>J956>J867, J912>J1042

Structure (SMILES): NC[C@H]1CC[C@H](C(=O)O)CC1 [tranexamic acid]
blood loss reduction [5]: 45%

RBA (%) GR [2]: 39%
RBA (%) PR [3]: 22%
Structure (SMILES): CN(C)c1ccc([C@H]2C[C@]3(C)[C@@H](CC[C@]3(O)CCCO)[C@@H]3CCC4=CC(=O)CCC4=C32)cc1 [Onapristone, reference compound]
abortifacient activity ED50, rat [1]: 1.71* mg/animal/day
abortifacient activity ED50, guinea pig [4]: ca 3 mg/animal/day

Structure (SMILES): CC#C[C@]1(O)CC[C@H]2[C@@H]3CCC4=CC(=O)CCC4=C3[C@@H](c3ccc(N(C)C)cc3)C[C@@]21C [RU 486, mifepristone, reference compound]
abortifacient activity ED50, rat [1]: 0.98* mg/animal/day
RBA (%) GR [2]: 685%
dose of first antiprogestagenic effect [6]: 0.3-1 mg/rabbit
abortifacient activity ED50, guinea pig [4]: 3.8 mg/animal/day
ranking of abortifacient activity [4]: RU486>J956>J867, J912>J1042

dose at which progestagenic effect / endometrial transformation was observed [7]: ≥ 0.1 mg/rabbit
dose of maximum effect [7]: 1 mg/rabbit
maximum effect, McPhail score [7]: ~4 McPhail score
Structure (SMILES): CC(=O)[C@H]1CC[C@H]2[C@@H]3CCC4=CC(=O)CC[C@]4(C)[C@H]3CC[C@]12C [Progesterone]

Structure (SMILES): COC[C@]1(OC)CC[C@H]2[C@@H]3CCC4=CC(=O)CCC4=C3[C@@H](c3ccc(/C=N/OC(C)=O)cc3)C[C@@]21C [J 914, 4-[17β-Methoxy-17α-(methoxymethyl)-3-oxoestra-4,9-dien-11β-yl]benzaldehyd-(1E)-(O-acetyl)oxim]
uterine weights [8]: reduced uterine weights
antiprogestagenic activity [9]: strong
antiglucocorticoid activity compared to RU 486 [10]: markedly reduced

Structure (SMILES): C#C[C@]1(O)CC[C@H]2[C@@H]3CCC4=Cc5oncc5C[C@]4(C)[C@H]3CC[C@@]21C [danazol]
women with side effects [11]: ≤ 85%

Structure (SMILES): CCOC(=O)O/N=C/c1ccc([C@H]2C[C@@]3(C)[C@@H](CC[C@]3(COC)OC)[C@@H]3CCC4=CC(=O)CCC4=C32)cc1 [J 900, 4-[17β-Methoxy-17α-(methoxymethyl)-3-oxoestra-4,9-dien-11β-yl]benzaldehyd-(1E)-[O-(ethoxy)carbonyl]oxim]
uterine weights [8]: reduced uterine weights
antiprogestagenic activity [9]: strong
antiglucocorticoid activity compared to RU 486 [10]: markedly reduced
